The results in this text go back to ChEMBL document CHEMBL1201862, “PubChem BioAssay data set” (2004).

Activity calls are given as the source filed them.

What all share (assay type): functional
Test [1] is described as follows: SAR analysis of small molecule activators of Apaf-1 using a LZ-Caspase-9/Caspase-3 Fluorescent Selectivity assay - Set 2. Particulars: read-out: EC50_Mean.
Test [2] deals with T1, Apoptotic protease-activating factor 1 (Homo sapiens, UniProt O14727).
T1 sequence (O14727 whole entry): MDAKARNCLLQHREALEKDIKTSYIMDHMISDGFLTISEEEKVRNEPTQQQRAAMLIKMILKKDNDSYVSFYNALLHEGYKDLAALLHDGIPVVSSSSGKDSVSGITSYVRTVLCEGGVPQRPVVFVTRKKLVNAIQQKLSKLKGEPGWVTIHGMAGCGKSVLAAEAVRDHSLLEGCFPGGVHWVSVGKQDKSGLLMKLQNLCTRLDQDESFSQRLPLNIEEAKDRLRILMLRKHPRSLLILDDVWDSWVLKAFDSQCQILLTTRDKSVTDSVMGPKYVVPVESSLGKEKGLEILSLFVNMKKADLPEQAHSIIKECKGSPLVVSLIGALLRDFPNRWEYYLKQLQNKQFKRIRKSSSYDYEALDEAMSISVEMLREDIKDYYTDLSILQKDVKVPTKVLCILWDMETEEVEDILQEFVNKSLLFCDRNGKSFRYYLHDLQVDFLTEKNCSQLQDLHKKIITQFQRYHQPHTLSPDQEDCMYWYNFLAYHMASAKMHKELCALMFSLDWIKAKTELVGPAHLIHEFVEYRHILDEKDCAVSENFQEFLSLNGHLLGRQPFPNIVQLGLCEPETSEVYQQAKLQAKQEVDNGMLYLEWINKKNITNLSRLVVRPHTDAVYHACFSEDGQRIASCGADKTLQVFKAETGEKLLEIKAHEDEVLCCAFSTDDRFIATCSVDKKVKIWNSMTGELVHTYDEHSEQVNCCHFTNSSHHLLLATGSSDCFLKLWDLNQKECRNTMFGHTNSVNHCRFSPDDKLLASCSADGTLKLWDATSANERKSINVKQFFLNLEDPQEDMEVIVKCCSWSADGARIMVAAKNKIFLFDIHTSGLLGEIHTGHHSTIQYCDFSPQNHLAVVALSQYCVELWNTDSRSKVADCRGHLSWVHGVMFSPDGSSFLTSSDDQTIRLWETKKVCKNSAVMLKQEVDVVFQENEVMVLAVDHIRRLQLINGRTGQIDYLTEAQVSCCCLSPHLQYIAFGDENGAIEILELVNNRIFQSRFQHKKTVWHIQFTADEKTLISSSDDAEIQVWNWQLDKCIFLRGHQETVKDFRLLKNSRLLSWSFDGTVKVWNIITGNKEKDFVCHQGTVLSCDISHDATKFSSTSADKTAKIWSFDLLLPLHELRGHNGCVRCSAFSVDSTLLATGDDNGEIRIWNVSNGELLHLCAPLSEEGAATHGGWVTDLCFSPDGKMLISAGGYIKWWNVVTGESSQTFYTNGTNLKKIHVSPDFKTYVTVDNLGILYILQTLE
Nature of the test: SAR analysis of small molecule Activators of Apaf-1 in a Fluorescent assay - set 2. The following applies: read-out: EC50_Mean.

The target in test [3] is Melanin-concentrating hormone receptor 1 (Homo sapiens, UniProt Q99705). Briefly: Late-stage fluorescence-based counterscreen for antagonists of the G-protein coupled receptor 7 (GPR7): cell-based dose response assay to identify antagonists of the melanin-concentrating hormone receptor 1 (MCHR1) Set 6. Background: A counterscreen serves to expose hits that act by an unwanted route or on another target.

Test [4] concerns the target T2, Neuropeptides B/W receptor type 1 (Homo sapiens, UniProt P48145).
T2 sequence (P48145 whole entry): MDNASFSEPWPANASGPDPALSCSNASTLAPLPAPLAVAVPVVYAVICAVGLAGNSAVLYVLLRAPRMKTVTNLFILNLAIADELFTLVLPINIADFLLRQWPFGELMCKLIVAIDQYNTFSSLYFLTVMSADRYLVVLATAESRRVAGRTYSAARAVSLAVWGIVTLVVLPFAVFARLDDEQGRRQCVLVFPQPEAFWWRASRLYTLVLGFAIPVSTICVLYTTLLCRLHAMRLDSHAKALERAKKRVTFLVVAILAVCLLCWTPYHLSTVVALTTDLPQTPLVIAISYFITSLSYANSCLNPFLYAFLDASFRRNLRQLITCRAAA
Nature of the test: GPR7 antagonist potency, late-stage follow-up, cell-based, fluorescence, dose response, set 6 (AID 588583).

Sequence of Melanin-concentrating hormone receptor 1 (Q99705 whole entry): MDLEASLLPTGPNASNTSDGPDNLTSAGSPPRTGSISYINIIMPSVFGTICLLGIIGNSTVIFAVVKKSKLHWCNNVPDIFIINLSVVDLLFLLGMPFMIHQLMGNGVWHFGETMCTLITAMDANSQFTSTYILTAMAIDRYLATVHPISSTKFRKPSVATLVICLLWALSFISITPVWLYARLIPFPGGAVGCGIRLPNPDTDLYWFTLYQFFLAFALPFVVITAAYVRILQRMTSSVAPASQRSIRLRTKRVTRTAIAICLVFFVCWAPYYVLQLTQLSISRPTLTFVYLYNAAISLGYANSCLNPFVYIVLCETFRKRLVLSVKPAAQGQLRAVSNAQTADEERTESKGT

Turning to `CC(Cn1nnc2ccccc21)C(=O)O` (centres undefined), the EC50 was > 100 µM (inactive) in test [1] and 42.6 µM (active) in test [2].
By IC50 is commonly meant the concentration needed to halve the response being measured. As to `N#CC(c1ccccc1)c1c(S)cnn(Cc2cccc3ccccc23)c1=O` (centres undefined), the IC50 in test [3] and in test [4] was > 20 µM (inactive) each time.
